# Test results: patent US10906910B2, “Substituted bicyclic pyrimidine compounds with tubulin and multiple receptor inhibition” (Duquesne University of the Holy Spirit, priority 2014, dated 2021)
# How the values were obtained:
# Assay type in all cases: cell-based
# K-562 = assay: NCI 60 panel, Leukemia K-562; details: Homo sapiens, K562, read-out: Tumor cell inhibitory activity (NCI) GI50
# MDA-MB-231/ATCC = assay: NCI 60 panel, Breast Cancer MDA-MB-231/ATCC; details: Homo sapiens, read-out: Tumor cell inhibitory activity (NCI) GI50
# PDGFRβ = PDGFRβ (Homo sapiens, UniProt P09619); assay: PDGFRβ kinase inhibition, whole-cell assay; details: whole-cell assay; read-out: kinase inhibition IC50 [whole-cell assays] PDGFRβ
# LOX IMVI = assay: NCI 60 panel, Melanoma LOX IMVI; details: Homo sapiens, read-out: Tumor cell inhibitory activity (NCI) GI50
# OVCAR-5 = assay: NCI 60 panel, Ovarian cancer OVCAR-5; details: Homo sapiens, read-out: Tumor cell inhibitory activity (NCI) GI50
# SK-OV-3 = assay: NCI 60 panel, Ovarian cancer SK-OV-3; details: Homo sapiens, read-out: Tumor cell inhibitory activity (NCI) GI50
# wild type HeLa cells = assay: HeLa cytotoxicity, wild type; details: Homo sapiens
# 786-0 = assay: NCI 60 panel, Renal Cancer 786-0; details: Homo sapiens, read-out: Tumor cell inhibitory activity (NCI) GI50
# NCI/ADR-RES = assay: NCI 60 panel, Ovarian cancer NCI/ADR-RES; details: Homo sapiens, read-out: Tumor cell inhibitory activity (NCI) GI50
# SK-MEL-5 = assay: NCI 60 panel, Melanoma SK-MEL-5; details: Homo sapiens, read-out: Tumor cell inhibitory activity (NCI) GI50
# IGROVI = assay: NCI 60 panel, Ovarian cancer IGROVI; details: read-out: Tumor cell inhibitory activity (NCI) GI50
# TK10 = assay: NCI 60 panel, Renal Cancer TK10; details: Homo sapiens, TK-10, read-out: Tumor cell inhibitory activity (NCI) GI50
# NCI-H522 = assay: NCI 60 panel, NSCLC NCI-H522; details: Homo sapiens, read-out: Tumor cell inhibitory activity (NCI) GI50
# OVCAR-8 = assay: NCI 60 panel, Ovarian cancer OVCAR-8; details: Homo sapiens, read-out: Tumor cell inhibitory activity (NCI) GI50
# SNB-75 = assay: NCI 60 panel, CNS Cancer SNB-75; details: Homo sapiens, read-out: Tumor cell inhibitory activity (NCI) GI50
# A549/ATCC = assay: NCI 60 panel, NSCLC A549/ATCC; details: Homo sapiens, read-out: Tumor cell inhibitory activity (NCI) GI50
# ACHN = assay: NCI 60 panel, Renal Cancer ACHN; details: Homo sapiens, read-out: Tumor cell inhibitory activity (NCI) GI50
# MDA-MB-435 = assay: NCI 60 panel, Melanoma MDA-MB-435; details: Homo sapiens, read-out: Tumor cell inhibitory activity (NCI) GI50
# MOLT-4 = assay: NCI 60 panel, Leukemia MOLT-4; details: Homo sapiens, read-out: Tumor cell inhibitory activity (NCI) GI50
# HOP-92 = assay: NCI 60 panel, NSCLC HOP-92; details: Homo sapiens, read-out: Tumor cell inhibitory activity (NCI) GI50
# BT-549 = assay: NCI 60 panel, Breast Cancer BT-549; details: Homo sapiens, read-out: Tumor cell inhibitory activity (NCI) GI50
# HCT-116 = assay: NCI 60 panel, Colon Cancer HCT-116; details: Homo sapiens, read-out: Tumor cell inhibitory activity (NCI) GI50
# RXF 393 = assay: NCI 60 panel, Renal Cancer RXF 393; details: Homo sapiens, read-out: Tumor cell inhibitory activity (NCI) GI50
# SR = assay: NCI 60 panel, Leukemia SR; details: Homo sapiens, read-out: Tumor cell inhibitory activity (NCI) GI50
# DU-145 = assay: NCI 60 panel, Prostate Cancer DU-145; details: Homo sapiens, read-out: Tumor cell inhibitory activity (NCI) GI50
# NCI-H322M = assay: NCI 60 panel, NSCLC NCI-H322M; details: Homo sapiens, read-out: Tumor cell inhibitory activity (NCI) GI50
# HCC-2998 = assay: NCI 60 panel, Colon Cancer HCC-2998; details: Homo sapiens, read-out: Tumor cell inhibitory activity (NCI) GI50
# HOP-62 = assay: NCI 60 panel, NSCLC HOP-62; details: Homo sapiens, read-out: Tumor cell inhibitory activity (NCI) GI50
# U251 = assay: NCI 60 panel, CNS Cancer U251; details: Homo sapiens, U-251, read-out: Tumor cell inhibitory activity (NCI) GI50
# UACC-257 = assay: NCI 60 panel, Melanoma UACC-257; details: Homo sapiens, read-out: Tumor cell inhibitory activity (NCI) GI50
# SF-268 = assay: NCI 60 panel, CNS Cancer SF-268; details: Homo sapiens, read-out: Tumor cell inhibitory activity (NCI) GI50
# NCI-H23 = assay: NCI 60 panel, NSCLC NCI-H23; details: Homo sapiens, read-out: Tumor cell inhibitory activity (NCI) GI50
# CCRF-CEM = assay: NCI 60 panel, Leukemia CCRF-CEM; details: Homo sapiens, read-out: Tumor cell inhibitory activity (NCI) GI50
# SF-539 = assay: NCI 60 panel, CNS Cancer SF-539; details: Homo sapiens, read-out: Tumor cell inhibitory activity (NCI) GI50
# RPMI-8226 = assay: NCI 60 panel, Leukemia RPMI-8226; details: Homo sapiens, read-out: Tumor cell inhibitory activity (NCI) GI50
# SK-MEL-28 = assay: NCI 60 panel, Melanoma SK-MEL-28; details: Homo sapiens, read-out: Tumor cell inhibitory activity (NCI) GI50
# UACC-62 = assay: NCI 60 panel, Melanoma UACC-62; details: Homo sapiens, read-out: Tumor cell inhibitory activity (NCI) GI50
# HS 578T = assay: NCI 60 panel, Breast Cancer HS 578T; details: Homo sapiens, read-out: Tumor cell inhibitory activity (NCI) GI50
# SNB-19 = assay: NCI 60 panel, CNS Cancer SNB-19; details: Homo sapiens, read-out: Tumor cell inhibitory activity (NCI) GI50
# EKVX = assay: NCI 60 panel, NSCLC EKVX; details: Homo sapiens, read-out: Tumor cell inhibitory activity (NCI) GI50
# SF-295 = assay: NCI 60 panel, CNS Cancer SF-295; details: Homo sapiens, read-out: Tumor cell inhibitory activity (NCI) GI50
# NCI-H460 = assay: NCI 60 panel, NSCLC NCI-H460; details: Homo sapiens, read-out: Tumor cell inhibitory activity (NCI) GI50
# MALME-3M = assay: NCI 60 panel, Melanoma MALME-3M; details: Homo sapiens, read-out: Tumor cell inhibitory activity (NCI) GI50
# HL-60(TB) = assay: NCI 60 panel, Leukemia HL-60(TB); details: Homo sapiens, read-out: Tumor cell inhibitory activity (NCI) GI50
# KM12 = assay: NCI 60 panel, Colon Cancer KM12; details: Homo sapiens, read-out: Tumor cell inhibitory activity (NCI) GI50
# OVCAR-4 = assay: NCI 60 panel, Ovarian cancer OVCAR-4; details: Homo sapiens, read-out: Tumor cell inhibitory activity (NCI) GI50
# SN12C = assay: NCI 60 panel, Renal Cancer SN12C; details: Homo sapiens, read-out: Tumor cell inhibitory activity (NCI) GI50
# HCT-15 = assay: NCI 60 panel, Colon Cancer HCT-15; details: Homo sapiens, read-out: Tumor cell inhibitory activity (NCI) GI50
# MDA-MB-468 = assay: NCI 60 panel, Breast Cancer MDA-MB-468; details: Homo sapiens, read-out: Tumor cell inhibitory activity (NCI) GI50
# A498 = assay: NCI 60 panel, Renal Cancer A498; details: Homo sapiens, read-out: Tumor cell inhibitory activity (NCI) GI50
# M14 = assay: NCI 60 panel, Melanoma M14; details: Homo sapiens, read-out: Tumor cell inhibitory activity (NCI) GI50
# NCI-H226 = assay: NCI 60 panel, NSCLC NCI-H226; details: Homo sapiens, read-out: Tumor cell inhibitory activity (NCI) GI50
# SW-620 = assay: NCI 60 panel, Colon Cancer SW-620; details: Homo sapiens, read-out: Tumor cell inhibitory activity (NCI) GI50
# UO-31 = assay: NCI 60 panel, Renal Cancer UO-31; details: Homo sapiens, read-out: Tumor cell inhibitory activity (NCI) GI50
# OVCAR-3 = assay: NCI 60 panel, Ovarian cancer OVCAR-3; details: Homo sapiens, read-out: Tumor cell inhibitory activity (NCI) GI50
# EGFR = EGFR (Homo sapiens, UniProt P00533); assay: EGFR kinase inhibition, whole-cell assay; details: read-out: kinase inhibition IC50 [whole-cell assays] EGFR
# CAKI-1 = assay: NCI 60 panel, Renal Cancer CAKI-1; details: Homo sapiens, read-out: Tumor cell inhibitory activity (NCI) GI50
# [1] = test system: NCI 60 tumor cell line panel; assay: NCI 60 tumor cell line panel, overall
# COLO 205 = assay: NCI 60 panel, Colon Cancer COLO 205; details: Homo sapiens, read-out: Tumor cell inhibitory activity (NCI) GI50
# MCF7 = assay: NCI 60 panel, Breast Cancer MCF7; details: Homo sapiens, read-out: Tumor cell inhibitory activity (NCI) GI50
# T-47D = assay: NCI 60 panel, Breast Cancer T-47D; details: Homo sapiens, T47D, read-out: Tumor cell inhibitory activity (NCI) GI50
# Chain of EGFR (P00533 25-1210, species assumed): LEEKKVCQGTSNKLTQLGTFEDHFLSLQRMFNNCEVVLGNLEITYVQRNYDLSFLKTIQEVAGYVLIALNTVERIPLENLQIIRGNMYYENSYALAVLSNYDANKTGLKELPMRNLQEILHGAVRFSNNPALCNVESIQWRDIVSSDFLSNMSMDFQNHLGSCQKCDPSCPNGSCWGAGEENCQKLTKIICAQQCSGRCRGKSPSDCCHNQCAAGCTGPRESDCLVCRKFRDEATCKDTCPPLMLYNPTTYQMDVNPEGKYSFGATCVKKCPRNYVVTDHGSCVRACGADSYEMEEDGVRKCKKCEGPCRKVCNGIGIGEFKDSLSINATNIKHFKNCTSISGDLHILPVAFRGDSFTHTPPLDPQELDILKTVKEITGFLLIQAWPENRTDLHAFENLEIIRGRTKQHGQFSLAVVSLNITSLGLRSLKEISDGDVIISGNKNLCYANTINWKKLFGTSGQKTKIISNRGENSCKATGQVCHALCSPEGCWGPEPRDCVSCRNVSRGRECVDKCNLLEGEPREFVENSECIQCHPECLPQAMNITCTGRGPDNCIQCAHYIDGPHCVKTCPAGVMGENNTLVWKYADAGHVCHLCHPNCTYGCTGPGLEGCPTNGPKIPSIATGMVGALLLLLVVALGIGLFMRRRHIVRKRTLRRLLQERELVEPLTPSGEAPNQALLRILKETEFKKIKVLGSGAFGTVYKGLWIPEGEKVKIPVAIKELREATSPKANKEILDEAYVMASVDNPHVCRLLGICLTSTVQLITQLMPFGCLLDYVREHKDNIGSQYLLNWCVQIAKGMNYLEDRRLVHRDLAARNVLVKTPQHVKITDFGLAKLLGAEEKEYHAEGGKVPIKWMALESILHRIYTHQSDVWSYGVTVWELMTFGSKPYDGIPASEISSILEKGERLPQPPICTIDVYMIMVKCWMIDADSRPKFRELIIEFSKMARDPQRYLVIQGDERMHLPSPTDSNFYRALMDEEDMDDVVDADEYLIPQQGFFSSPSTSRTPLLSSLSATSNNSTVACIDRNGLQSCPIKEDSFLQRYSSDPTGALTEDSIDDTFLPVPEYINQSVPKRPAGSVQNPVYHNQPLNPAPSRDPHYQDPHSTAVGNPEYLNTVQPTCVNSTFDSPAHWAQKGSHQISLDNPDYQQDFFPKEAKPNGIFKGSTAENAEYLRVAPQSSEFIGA
# Chain of PDGFRβ (P09619 33-1106, species assumed): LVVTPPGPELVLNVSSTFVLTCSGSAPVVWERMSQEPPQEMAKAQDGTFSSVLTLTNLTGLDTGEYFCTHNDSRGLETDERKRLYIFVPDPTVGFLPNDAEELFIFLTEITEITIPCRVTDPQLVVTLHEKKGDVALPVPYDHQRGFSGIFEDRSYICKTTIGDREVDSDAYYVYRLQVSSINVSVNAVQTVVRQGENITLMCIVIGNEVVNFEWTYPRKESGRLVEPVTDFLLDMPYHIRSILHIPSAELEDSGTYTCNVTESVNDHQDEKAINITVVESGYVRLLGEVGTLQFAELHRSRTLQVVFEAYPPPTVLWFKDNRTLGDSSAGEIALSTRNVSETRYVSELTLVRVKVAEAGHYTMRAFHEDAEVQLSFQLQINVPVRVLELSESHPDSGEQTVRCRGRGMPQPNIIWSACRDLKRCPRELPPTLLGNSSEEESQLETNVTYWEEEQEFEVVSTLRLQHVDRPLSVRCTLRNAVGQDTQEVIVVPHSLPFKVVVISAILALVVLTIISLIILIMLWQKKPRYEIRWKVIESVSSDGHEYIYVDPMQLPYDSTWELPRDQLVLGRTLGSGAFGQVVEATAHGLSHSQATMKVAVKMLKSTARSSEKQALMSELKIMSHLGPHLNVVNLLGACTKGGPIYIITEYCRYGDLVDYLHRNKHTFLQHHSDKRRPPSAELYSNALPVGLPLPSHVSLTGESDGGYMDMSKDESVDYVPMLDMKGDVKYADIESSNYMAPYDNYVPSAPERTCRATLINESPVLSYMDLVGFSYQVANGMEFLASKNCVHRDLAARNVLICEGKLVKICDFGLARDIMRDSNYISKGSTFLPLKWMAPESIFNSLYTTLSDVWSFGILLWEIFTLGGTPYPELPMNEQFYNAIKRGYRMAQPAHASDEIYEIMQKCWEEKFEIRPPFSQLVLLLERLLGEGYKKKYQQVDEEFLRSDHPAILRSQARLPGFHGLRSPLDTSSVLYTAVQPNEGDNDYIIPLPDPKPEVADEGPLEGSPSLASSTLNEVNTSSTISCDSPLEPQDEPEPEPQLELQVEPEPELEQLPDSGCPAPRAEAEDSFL
smiles,measurement,setting,value
"COc1ccc2c(c1)CCCN2c1nc(C)nc2c(Cc3ccccc3)c[nH]c12 [Compound 2, 1-(7-Benzyl-2-methyl-5H-pyrrolo[3,2-d]pyrimidin-4-yl)-6-methoxy-1,2,3,4-tetrahydroquinoline]",GI50,K-562,0.111 µM
same,GI50,MDA-MB-231/ATCC,0.641 µM
same,IC50,PDGFRβ,0.0903 µM
same,GI50,LOX IMVI,0.521 µM
same,GI50,OVCAR-5,0.543 µM
same,GI50,SK-OV-3,0.423 µM
same,IC50,wild type HeLa cells,0.25 µM
same,GI50,786-0,0.934 µM
same,GI50,NCI/ADR-RES,0.265 µM
same,GI50,SK-MEL-5,0.325 µM
same,GI50,IGROVI,0.44 µM
same,GI50,TK10,0.123 µM
same,GI50,NCI-H522,0.316 µM
same,GI50,OVCAR-8,0.487 µM
same,GI50,SNB-75,0.182 µM
same,GI50,A549/ATCC,0.406 µM
same,GI50,ACHN,0.83 µM
same,GI50,MDA-MB-435,0.341 µM
same,GI50,MOLT-4,0.345 µM
same,GI50,HOP-92,0.189 µM
same,GI50,BT-549,0.755 µM
same,GI50,HCT-116,0.368 µM
same,GI50,RXF 393,0.212 µM
same,GI50,SR,0.922 µM
same,GI50,DU-145,0.383 µM
same,GI50,NCI-H322M,0.362 µM
same,GI50,HCC-2998,0.318 µM
same,GI50,HOP-62,0.379 µM
same,GI50,U251,0.316 µM
same,GI50,UACC-257,0.108 µM
same,GI50,SF-268,0.723 µM
same,GI50,NCI-H23,0.32 µM
same,GI50,CCRF-CEM,0.226 µM
same,GI50,SF-539,0.26 µM
same,GI50,RPMI-8226,0.266 µM
same,GI50,SK-MEL-28,0.368 µM
same,GI50,UACC-62,0.659 µM
same,GI50,HS 578T,0.582 µM
same,GI50,SNB-19,0.549 µM
same,GI50,EKVX,0.463 µM
same,GI50,SF-295,0.192 µM
same,GI50,NCI-H460,0.337 µM
same,GI50,MALME-3M,0.33 µM
same,GI50,HL-60(TB),0.222 µM
same,GI50,KM12,0.366 µM
same,GI50,OVCAR-4,0.468 µM
same,GI50,SN12C,0.618 µM
same,GI50,HCT-15,0.366 µM
same,GI50,MDA-MB-468,0.153 µM
same,GI50,A498,0.197 µM
same,GI50,M14,0.252 µM
same,GI50,NCI-H226,0.136 µM
same,GI50,SW-620,0.37 µM
same,GI50,UO-31,0.39 µM
same,GI50,OVCAR-3,0.285 µM
same,IC50,EGFR,0.0336 µM
same,GI50,CAKI-1,0.341 µM
same,"GI50 across the NCI 60 tumor cell line panel, in words",[1],2- to 3-digit nanomolar
same,GI50,COLO 205,0.232 µM
same,GI50,MCF7,0.248 µM
same,GI50,T-47D,0.128 µM
